Experimental data from US20050036904A1, “Methods for eradication of nanobacteria” (priority 1998, published 2005).
Where a name gives a salt, the structure may show the parent alone.

Legend:
[1] = tested on: SF-nanobacteria; assay: Chemical disinfection of SF-nanobacteria; format: cell-based; design: Resistance of SF-nanobacteria to chemical disinfectants (survival), exposure time 10 min: key to the marks not given beside the values; settings: for Resistance of SF-nanobacteria to chemical disinfectants (survival), exposure time 10 min: 10 min exposure at room temperature; for Resistance of SF-nanobacteria to chemical disinfectants (survival), exposure time 10 min / Resistance of SF-nanobacteria to chemical disinfectants (survival), exposure time 30 min: survival after subculture compared to diluent only; for Resistance of SF-nanobacteria to chemical disinfectants (survival), exposure time 30 min: 30 min exposure at room temperature; for Effect of chemical treatment on SF-nanobacteria (in words): room temperature exposure
Description: The cultures were exposed to the disinfectants after removal of the culture medium. For the autoclaving, UV, microwave, and drying treatments, the medium was removed and an equal amount of PBS used instead. For the heat treatments, the SF-nanobacteria were harvested by scraping the culture vessel followed by centrifugation of the medium. The obtained pellet was suspended in PBS and used in the test. After treatments the SF-nanobacteria were subcultured in DMEM medium and the growth followed by light microscopy to see the adherence and typical mineralization.
The concentrations of the chemicals used were those commonly used for disinfection or as instructed by the manufacturer. The chemicals included 70% ethanol, 2% glutaraldehyde, 4% formaldehyde, 0.5% hypochlorite, 3% hydrogen peroxide, 1M hydrochloric acid (HCl), 1M sodium hydroxide (NaOH), 1% sodium dodecyl sulfate (SDS), 1% Tween 80, 1% Triton X-100, 3M guanidium-hydrochloride, 3M urea, 1% Virkon® (Antec International Ltd., Suffolk, England; 100% product contains 50% potassium persulfate, 5% sulfaminoic acid), 1.5% Erifenol® (Orion OY, Finland; 100% product contains <5% NaOH, <5% o-benzyl-p-chlorophenol, 5-15% p-chloro-m-cresol), 1% Klorilli® (Orion OY, Finland; 100% product contains sodium metasilicate, sodium N-chloro-p-toluenesulfonamide-3-hydrate and 20,000 ppm active chlorine), and 3% Buraton® (Schulke & Mayr, Germany; 100% product contains 4.5% formaldehyde, 6.8% glyoxal, 1.5% glyoxylic acid, 6% dimethylaurylbenzyl-ammonium chloride). The dilutions to be used were freshly prepared on the day of exposure in sterile distilled water. As a positive control, only diluent was used. Negative control contained only culture medium.
The SF-nanobacteria were exposed to the chemicals for 10 and 30 minutes at room temperature after removal of the culture medium. After exposure, the disinfectant solution was removed and fresh medium added (with a neutralization step in the case of HCl and NaOH). If any significant deattachment occurred, nanobacteria were recovered by centrifugation, and subcultured.

[2] = tested on: nanobacteria; assay: Antibiotic susceptibility of nanobacteria, Minimal Inhibition Concentration (MIC) in 96-well plates; format: cell-based
Procedure: Antibiotic sensitivity tests were carried out by measuring Minimal Inhibition Concentration (MIC), a common practice in clinical microbiology.
The tests were performed in 96-well plates. DMEM (commercial cell culture medium) containing 10% gamma-irradiated fetal bovine serum (FBS)(dose about 3 Mrads; this treatment inactivates nanobacteria in the serum so that the basic medium is sterile) was used as the basic culture medium. These components are commercially available, e.g., from Gibco. The antibiotic stock solutions were sterile filtered through 0.2 micrometer filters. The stock solutions were then serially diluted (into the basal culture medium) to provide a final starting concentration of 0.5 mg/ml and 1:2 dilutions therefrom, unless otherwise specified. For each antibiotic three parallel tests were performed using all the antibiotic dilutions and, additionally, positive and negative control experiments. […] 100 μl of dilutions of the nanobacteria inoculum were added to all wells except the negative controls. The plates were incubated at mammalian cell culture conditions (37° Celsius, 5% carbon dioxide, 95% humid air). The absorbance values at 650 nm were recorded by using an ELISA reader at the start, and at 4, 8, 12, 14 days. […] Calculations were based on absorbance curves where absorbance was plotted against concentration of the antibiotic.

[3] = tested on: nanobacterial stone formation on human teeth; settings: fluoride concentrations typically present in toothpastes
[4] = tested on: bone resorption; settings: both in vitro and in vivo; cited from earlier work
[5] = tested on: nanobacterial biofilm; assay: Nanobacterial biofilm formation on commercial stents in vitro; format: cell-based, nanobacteria; settings: salts added to the culture medium; two commercial plastic-type stents
Description: (§1) Nanobacteria also absorb some heavy metals. Nanobacteria can be stained well with silver or copper compounds. […] Silver and copper parts or platings on surfaces, such as catheters or stents, can provide an antinanobacterial effect by preventing nanobacterial biofilm formation. In in vitro tests nanobacteria avidly formed biofilm on two different commercial stents made of a plastic type of material. This biofilm formation was prevented by the addition of silver or copper salts to the culture medium.

[6] = tested on: nanobacteria; assay: Nanobacterial growth in culture media with metal ions; format: cell-based; settings: added to culture media at submillimolar levels
Description: as §1

[7] = tested on: nanobacteria; assay: Treatment of human patients infected with nanobacteria; format: in vivo; settings: person, chronic fatigue syndrome
[8] = tested on: serum nanobacteria; assay: Antibiotic sensitivity test of serum nanobacteria (cell culture antibiotics); format: cell-based; settings: 100 μg/ml, cultured one month in medium containing 10% fetal bovine serum
Procedure: Nanobacteria were cultured with 10% fetal bovine serum in DMEM medium (serum nanobacteria) for one month at 37° C. in an atmosphere of 5% CO2-95% air. The cultures were harvested by centrifugation. For the autoclaving, UV, microwave, heating and drying treatments, the harvested nanobacteria were suspended in phosphate buffered saline (pH 7.4; PBS). After treatments, subculturing of the nanobacteria was made in 10% gamma irradiated fetal bovine serum in DMEM medium. The growth of serum nanobacteria was followed by light microscopy and absorbance measurement with a spectrophotometer at 650 nm.
The 1× concentrations are those recommended for cell culture. After 10 days culture in 10% serum containing DMEM with the antibiotic, growth was compared to that of nanobacteria cultures without antibiotics present.

[9] = tested on: calculus formation on teeth; settings: laboratory animals; cited from earlier work

OCl [0.5% hypochlorite, hypochlorite]
Resistance of SF-nanobacteria to chemical disinfectants (survival), exposure time 10 min [1]: +++
Resistance of SF-nanobacteria to chemical disinfectants (survival), exposure time 30 min [1]: +++

CCCCCCCCCCCCOS(=O)(=O)[O-].[Na+] [1% SDS, sodium dodecyl sulfate]
Resistance of SF-nanobacteria to chemical disinfectants (survival), exposure time 10 min [1]: +++
Resistance of SF-nanobacteria to chemical disinfectants (survival), exposure time 30 min [1]: +++

CCCCCCCC/C=C\CCCCCCCC(=O)OCCOCC(OCCO)C1OCC(OCCO)C1OCCO (stereo not shown) [1% Tween 80, Tween 80]
Resistance of SF-nanobacteria to chemical disinfectants (survival), exposure time 10 min [1]: +++
Resistance of SF-nanobacteria to chemical disinfectants (survival), exposure time 30 min [1]: +++

Cl [1M HCl, hydrochloric acid]
Resistance of SF-nanobacteria to chemical disinfectants (survival), exposure time 30 min [1]: ++
Effect of chemical treatment on SF-nanobacteria (in words) [1]: dissolved the apatite layer of nanobacteria, but remineralization was observed after addition of culture medium

[Na+].[OH-] [1M NaOH, sodium hydroxide]
Resistance of SF-nanobacteria to chemical disinfectants (survival), exposure time 10 min [1]: +++
Resistance of SF-nanobacteria to chemical disinfectants (survival), exposure time 30 min [1]: +++

O=CCCCC=O [2% glutaraldehyde, glutaraldehyde]
Resistance of SF-nanobacteria to chemical disinfectants (survival), exposure time 10 min [1]: +++
Resistance of SF-nanobacteria to chemical disinfectants (survival), exposure time 30 min [1]: +++

OO [3% H2O2, hydrogen peroxide]
Resistance of SF-nanobacteria to chemical disinfectants (survival), exposure time 10 min [1]: +++
Resistance of SF-nanobacteria to chemical disinfectants (survival), exposure time 30 min [1]: +++

N=C(N)N [3M Guanidium HCl, guanidium-hydrochloride]
Resistance of SF-nanobacteria to chemical disinfectants (survival), exposure time 30 min [1]: 0
Effect of chemical treatment on SF-nanobacteria (in words) [1]: resulted in the deattachment of the SF-nanobacteria

NC(N)=O [3M Urea, urea]
Resistance of SF-nanobacteria to chemical disinfectants (survival), exposure time 10 min [1]: +++
Resistance of SF-nanobacteria to chemical disinfectants (survival), exposure time 30 min [1]: +++

C=O [4% formaldehyde, formaldehyde]
Resistance of SF-nanobacteria to chemical disinfectants (survival), exposure time 10 min [1]: +++
Resistance of SF-nanobacteria to chemical disinfectants (survival), exposure time 30 min [1]: +++

CCO [70% ethanol, ethanol]
Resistance of SF-nanobacteria to chemical disinfectants (survival), exposure time 10 min [1]: +++
Resistance of SF-nanobacteria to chemical disinfectants (survival), exposure time 30 min [1]: +++

CC(=O)Oc1ccccc1C(=O)O [Acetylsalicylic acid]
Kind of antinanobacterial effect in the in vitro test (in words) [2]: weak

CC1(C)S[C@@H]2[C@H](NC(=O)[C@H](N)c3ccccc3)C(=O)N2[C@H]1C(=O)O [Ampicillin]
Kind of antinanobacterial effect in the in vitro test (in words) [2]: weak bacteriostatic effect

O=P(O)(O)C(Cl)(Cl)P(=O)(O)O [Chlodronate]
Kind of antinanobacterial effect in the in vitro test (in words) [2]: bacteriocidic effect

O=C(O)CC(O)(CC(=O)O)C(=O)O [Citrate]
Kind of antinanobacterial effect in the in vitro test (in words) [2]: effective antinanobacterial agent

C[C@H]1c2cccc(O)c2C(=O)C2=C(O)[C@]3(O)C(=O)C(C(N)=O)=C(O)[C@@H](N(C)C)[C@@H]3[C@@H](O)[C@@H]21 [Doxycyclin, Doxycycline]
Kind of antinanobacterial effect in the in vitro test (in words) [2]: effective on inhibiting nanobacterial growth
MIC values calculated from the 8 day results ([2]; 8 day results): around 1 mg per liter
Stability under the test conditions ([2]; MIC test culture conditions): not stable under the test conditions

O=C(O)CN(CCN(CC(=O)O)CC(=O)O)CC(=O)O [EDTA, ethylenediaminetetraacetic acid]
Kind of antinanobacterial effect in the in vitro test (in words) [2]: antinanobacterial effects

O=C(O)CN(CCOCCOCCN(CC(=O)O)CC(=O)O)CC(=O)O [EGTA]
Kind of antinanobacterial effect in the in vitro test (in words) [2]: antinanobacterial effects

CC(O)(P(=O)(O)O)P(=O)(O)O [Ethidronate]
Kind of antinanobacterial effect in the in vitro test (in words) [2]: bacteriocidic effect

F [Fluoride]
Nanobacterial stone formation on human teeth [3]: inhibit nanobacterial stone formation

[H]/N=C(/N)N[C@H]1[C@H](O)[C@@H](O)[C@H](O[C@@H]2O[C@@H](C)[C@](O)(C=O)[C@H]2O[C@@H]2O[C@@H](CO)[C@H](O)[C@@H](O)[C@@H]2NC)[C@@H](N/C(N)=N\[H])[C@@H]1O [Streptomycin]
Kind of antinanobacterial effect in the in vitro test (in words) [2]: bacteriostatic effects at high antibiotic concentrations

COc1cc(Cc2cnc(N)nc2N)cc(OC)c1OC [Trimethoprim]
Kind of antinanobacterial effect in the in vitro test (in words) [2]: highly effective but was only bacteriostatic

CN[C@H](CC(C)C)C(=O)N[C@H]1C(=O)N[C@@H](CC(N)=O)C(=O)N[C@H]2C(=O)N[C@H]3C(=O)N[C@H](C(=O)N[C@H](C(=O)O)c4cc(O)cc(O)c4-c4cc3ccc4O)[C@H](O)c3ccc(c(Cl)c3)Oc3cc2cc(c3O[C@@H]2O[C@H](CO)[C@@H](O)[C@H](O)[C@H]2O[C@H]2C[C@](C)(N)[C@H](O)[C@H](C)O2)Oc2ccc(cc2Cl)[C@H]1O [Vancomycin]
Kind of antinanobacterial effect in the in vitro test (in words) [2]: effective bacteriostat against nanobacteria at relatively high concentrations

CC1=CC(=O)c2ccccc2C1=O [Vitamin K (Menadion), Menadion]
Kind of antinanobacterial effect in the in vitro test (in words) [2]: toxic to nanobacteria at concentrations that are not harmful to mammalian cells

NCCCC(O)(P(=O)(O)O)P(=O)(O)O [alendronate]
Potency relative to etidronate [4]: approximately 700 fold

[Cu] [copper]
Biofilm formation on stents [5]: prevented
Nanobacterial growth [6]: prevented nanobacterial growth

Nc1ccc(C(=O)O)c(O)c1 [para-aminosalicylic acid]
MIC value (in words) ([2]; compared with acetylsalicylic acid): identical with acetylsalicylic acid

CN(C)[C@@H]1C(O)=C(C(N)=O)C(=O)[C@@]2(O)C(O)=C3C(=O)c4c(O)cccc4[C@@](C)(O)[C@H]3C[C@@H]12 [tetracycline HCl]
Nanobacteria status of patient samples ([7]; 500 mg 4 times per day for one month, then 500 mg twice a day for 5 months, urine and serum samples): nanobacteria negative after one month therapy
Patient's condition ([7]; after one month therapy): improved

Gentamycin
Kind of antinanobacterial effect in the in vitro test (in words) [2]: bacteriostatic effects at high antibiotic concentrations
Morphology of nanobacteria in SEM [8]: changes in the morphology

Neomycin
Kind of antinanobacterial effect in the in vitro test (in words) [2]: bacteriostatic effects at high antibiotic concentrations

Penicillin
Calculus formation [9]: do not

Triton X-100 [1% Triton X-100]
Resistance of SF-nanobacteria to chemical disinfectants (survival), exposure time 10 min [1]: +++
Resistance of SF-nanobacteria to chemical disinfectants (survival), exposure time 30 min [1]: +++

Vitamin D
Kind of antinanobacterial effect in the in vitro test (in words) [2]: very weak inhibitory effect

silver
Biofilm formation on stents [5]: prevented
Nanobacterial growth [6]: prevented nanobacterial growth
